Test results: paper PMC4557804 (Journal of medicinal chemistry, 2015)
Where a name gives a salt, the structure may show the parent alone.

What was measured:
SphK2 [1] = target: T1, SphK2 (Homo sapiens, UniProt Q9NRA0); details: screen at 1 μM
T1 sequence (Q9NRA0 1-654): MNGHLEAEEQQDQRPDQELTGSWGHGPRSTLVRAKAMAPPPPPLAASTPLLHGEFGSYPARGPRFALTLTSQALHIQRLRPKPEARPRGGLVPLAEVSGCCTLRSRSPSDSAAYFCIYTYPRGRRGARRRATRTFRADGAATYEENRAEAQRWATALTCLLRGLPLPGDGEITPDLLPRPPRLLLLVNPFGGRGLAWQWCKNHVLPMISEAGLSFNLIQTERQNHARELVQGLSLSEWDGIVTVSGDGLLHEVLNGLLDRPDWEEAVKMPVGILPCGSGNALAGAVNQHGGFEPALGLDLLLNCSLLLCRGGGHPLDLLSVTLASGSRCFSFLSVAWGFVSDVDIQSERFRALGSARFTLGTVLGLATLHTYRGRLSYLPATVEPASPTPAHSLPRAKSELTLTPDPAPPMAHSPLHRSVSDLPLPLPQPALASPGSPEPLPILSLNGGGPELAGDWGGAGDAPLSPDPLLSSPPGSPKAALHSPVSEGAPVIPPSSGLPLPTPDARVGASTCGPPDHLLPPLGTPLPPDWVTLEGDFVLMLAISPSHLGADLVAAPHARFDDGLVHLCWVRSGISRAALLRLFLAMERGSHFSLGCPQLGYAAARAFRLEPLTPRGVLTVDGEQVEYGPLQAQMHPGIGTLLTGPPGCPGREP

SphK1 [2] = target: T2, SphK1 (Homo sapiens, UniProt Q9NYA1); details: screen at 1 μM
SphK2 [3] = target: T1, SphK2; experiment: biochemical; details: for inhibition at 1 µM: read-out: inhibition at SphK2
SphK1 [4] = target: T2, SphK1; experiment: biochemical; details: read-out: inhibition at SphK1
[5] = cited from earlier work

T2 sequence (Q9NYA1 whole entry, species assumed): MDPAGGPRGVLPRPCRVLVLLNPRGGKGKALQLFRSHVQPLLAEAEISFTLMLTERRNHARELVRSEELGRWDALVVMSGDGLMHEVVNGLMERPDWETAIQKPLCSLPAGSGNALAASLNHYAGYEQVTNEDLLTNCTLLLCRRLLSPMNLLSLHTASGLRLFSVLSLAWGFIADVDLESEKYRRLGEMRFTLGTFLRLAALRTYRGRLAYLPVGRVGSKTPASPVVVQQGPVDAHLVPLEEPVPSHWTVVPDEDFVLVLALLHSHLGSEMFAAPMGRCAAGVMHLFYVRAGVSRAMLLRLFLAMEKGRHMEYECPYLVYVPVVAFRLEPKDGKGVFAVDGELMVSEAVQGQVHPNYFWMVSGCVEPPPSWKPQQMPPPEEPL

inhibitory activity at SphK2 (SphK2 [1]) | inhibitory activity at SphK1 (SphK1 [2]) | inhibition at 1 µM (SphK2 [3]) | inhibition at 1 µM (SphK1 [4]) | SMILES | further results
inactive | inactive | – | – | CCCCCCCCCCc1ccc(NC(=O)[C@@H]2CCCN2C(=N)N)cc1.O=C(O)C(F)(F)F [Compound 29a, (S)-Amino(2-((4-decylphenyl)carbamoyl)pyrrolidin-1-yl)-methaniminium 2,2,2-Trifluoroacetate] | –
– | – | < 20% | < 20% | CCCCCCCCc1ccc(-c2noc([C@H](CO)NC(=N)N)n2)cc1 [Compound 7e, (S)-Amino((2-hydroxy-1-(3-(4-octylphenyl)-1,2,4-oxadiazol-5-yl)ethyl)amino)methaniminium Chloride] | –
inactive | inactive | – | – | CCCCCCCCCCc1ccc(NC(=O)[C@H]2CCCN2C(=N)N)cc1.O=C(O)C(F)(F)F [Compound 29b, (R)-Amino(2-((4-decylphenyl)carbamoyl)pyrrolidin-1-yl)-methaniminium 2,2,2-Trifluoroacetate] | –
essentially inactive | essentially inactive | – | – | CCCCCCCCc1ccc(-c2noc([C@@H]3CCN(C(=N)N)C3)n2)cc1.Cl [Compound 20b, (R)-Amino(3-(3-(4-octylphenyl)-1,2,4-oxadiazol-5-yl)-pyrrolidin-1-yl)methaniminium Chloride] | –
– | – | – | – | CCCCCCCCc1ccc(-c2noc([C@@H]3CCN3C(=N)N)n2)cc1 [Compound 7j, (S)-2-(3-(4-Octylphenyl)-1,2,4-oxadiazol-5-yl)azetidine-1-carboximidamide Hydrochloride] | Ki (SphK2 [3]): 1 µM
inactive | inactive | – | – | CCCCCCCCc1ccc(-c2noc(CN(C)C(=N)N)n2)cc1.Cl [Compound 7b, 1-Methyl-1-((3-(4-octylphenyl)-1,2,4-oxadiazol-5-yl)methyl)-guanidine Hydrochloride] | –
– | – | < 20% | < 20% | CCCCCCCCc1ccc(-c2noc(CNC(=N)N)n2)cc1 [Compound 7a, 1-((3-(4-Octylphenyl)-1,2,4-oxadiazol-5-yl)methyl)guanidine Hydrochloride] | –
essentially inactive | essentially inactive | – | – | CCCCCCCCc1ccc(-c2noc(C3CN(C(=N)N)C3)n2)cc1.Cl [Compound 20a, Amino(3-(3-(4-octylphenyl)-1,2,4-oxadiazol-5-yl)azetidin-1-yl)methaniminium Chloride] | –
– | – | – | – | O=C(NCc1ccncc1)C12CC3CC(C1)CC(c1ccc(Cl)cc1)(C3)C2 [ABC294640] | S1P levels in vivo [5]: decreased
– | – | < 20% | < 20% | CCCCCCCCc1ccc(-c2noc([C@@H](NC(=N)N)C(C)C)n2)cc1 [Compound 7d, (S)-1-(2-Methyl-1-(3-(4-octylphenyl)-1,2,4-oxadiazol-5-yl)-propyl)guanidine Hydrochloride] | –
– | – | < 20% | < 20% | CCCCCCCCc1ccc(-c2noc([C@H](C)NC(=N)N)n2)cc1 [Compound 7c, (S)-1-(1-(3-(4-Octylphenyl)-1,2,4-oxadiazol-5-yl)ethyl)-guanidine Hydrochloride] | –
no significant inhibitory effect | no significant inhibitory effect | – | – | CCCCCCCCc1ccc(CNC(=O)[C@@H]2CCCN2C(=N)N)cc1.O=C(O)C(F)(F)F [Compound 31, (S)-Amino(2-((4-octylbenzyl)carbamoyl)pyrrolidin-1-yl)-methaniminium 2,2,2-Trifluoroacetate] | –
